Experimental data from patent US8648094B2, “IAP BIR domain binding compounds” (Pharmascience, Inc., priority 2006, dated 2014).

Assays:
SKOV-3 cells = assay: Survival MTT assay; format: cell-based; conditions: Homo sapiens, SK-OV-3, 72 hours
Description: (§1) One day prior the treatment with compound, 2000 to 4000 cells per well were plated in a tissue culture treated 96 well format dish with 100 uL of media and incubated at 37° C., 5% CO2. On the day of compound treatment, compounds were diluted with cell culture media to a working stock concentration of 2×. 100 ul of diluted compound were then added to each well. The treated plate was incubated for 72 hours at 37° C., 5% CO2. Upon incubation, the cell viability was assessed as follows; 20 uL of MTT reagent (5 mg/mL) were added per well to cell plate. The plate was incubated for 2 hrs at 37° C. in presence of 5% CO2. The supernatant was then removed from the plate and 100 uL of isopropanol was added. The absorbance was measured in a TECAN spectrophotometer at 570 nm. The percentage of viability was expressed in percentage of the signal obtained with non treated cells.

MDA-MB-231 cells = assay: Survival MTT assay; format: cell-based; conditions: Homo sapiens, 72 hours, read-out: MDA-MB231 EC50
Description: as §1

selected cell lines = assay: Hollow fiber in vivo model; conditions: compared to fibers from vehicle treated control mice
Description: At day 1, selected cell lines are cultured and the fiber filled at a cell density of about 40,000 cells/fiber. At the day of operation (day 4), three fibers are implanted sub-cutaneous into 28-35 Nu/Nu CD-1 male mice. On day 5, mice start to receive daily injection via sub-cutaneous route of control vehicle or vehicle containing the selected compound at the appropriate concentration and/or injection of cytotoxic agent via intra-peritoneal route. Upon 4 days of consecutive treatments, the animals are sacrificed, each fiber is removed and the metabolic viability of the remaining cells determined by MTT assay. Efficacy of the compound is define as the difference between the vehicle-treated animal and the animal treated with the compound alone or the compound given in combination of the cytotoxic agent

c-IAP1 = target: T1, c-IAP1 (Homo sapiens, UniProt Q13490); assay: Detection of c-IAP1 in cells by western blotting; format: cell-based; conditions: HCT116 cells, overnight treatment
T1 construct: endogenous in cells; host or cells: HCT116
Description: Detection of cell expressed XIAP and PARP were done by western blotting. Cells were plated at 300 000 cells/well in a 60 mm wells (6 wells plate dish). The next day the cells were treated with selected compound at the indicated concentration. […] The resulting pellet was rinsed twice with cold TBS. The final washed pellet of cells was the lysed with 250 ul Lysis buffer (NP-40, glycerol, 1% of a protease inhibitor cocktail (Sigma)), placed at 4° C. for 25 min with gentle shaking. The cells extract was centrifuged at 4° C. for 10 min at 10 000 rpm. Both the supernatant and the pellet were kept for western blotting analysis as described below. From the supernatant, the protein content was evaluated and about 50 ug of protein was fractionated onto a 10% SDS-PAGE. Pellets were washed with the lysis buffer and re-suspend into 50 ul of Lamelli buffer 1×, boiled and fractionated on SDS-PAGE. Upon electrophoresis each gel was electro-transferred onto a nitrocellulose membrane at 0.6 A for 2 hours. Membrane non-specific sites were blocked for 1 hours with 5% Skim milk in TBST (TBS containing 0.1% (v/v) Tween-20) at RT. For protein immuno-detection, membranes were incubated overnight with primary antibodies raised against various IAPs or caspase-3 or caspase-9 primary antibodies were incubated at 4° C. with shaking at dilutions as follows:
Upon overnight incubation, the membranes received three washes of 15 min in TBST then were incubated for 1 hour at room temperature in the presence of a secondary antibody coupled with HRP-enzyme (Chemicon) and diluted at 1/5 000. Upon incubation each membrane were washed three times with TBST and the immunoreactive bands were detected by addition of a luminescent substrate (ECL kit Amersham) and capture of signal on a X-RAY film for various time of exposure.

A2780S ovarian cells = assay: Potentiation of TRAIL efficacy in survival assay; format: cell-based; conditions: 10 nM of compound
HCT116 colorectal cells = assay: Potentiation of TRAIL efficacy in survival assay; format: cell-based, human; conditions: 10 nM of compound
Description: Survival assays were preformed on the following transformed human cancer cell lines, MDA-MB-231, SKOV-3, H460, PC3, HCT-116, and SW480 cells. Cells were seeded in 96 well plates at a respective density of 5000 and 2000 cells per well and incubated at 37° C. in presence of 5% CO2 for 24 hours. Selected compounds were diluted into the media at various concentration ranging from 0.00001 uM up to 100 uM. Diluted compounds were added to the culture media. For the MDA-MB-231 SKOV3, H460, PC3, HCT-116, and SW480 cells, the compounds were added either alone or in presence of 1-3 ng/ml of TRAIL. After 48-72 hours cellular viability was evaluated by MTS based assays. A solution of [3-(4,5-dimethylthiazol-2-yl)-5-(3-carboxymethoxyphenyl)-2-(4-sulfophenyl)-2H-tetrazolium, inner salt; MTS] was added onto cells for a period of 1 to 4 hours. Upon incubation the amount of converted MTS was evaluated using a Tecan spectrophotometer set at 570 nm.

T1 sequence (Q13490 whole entry): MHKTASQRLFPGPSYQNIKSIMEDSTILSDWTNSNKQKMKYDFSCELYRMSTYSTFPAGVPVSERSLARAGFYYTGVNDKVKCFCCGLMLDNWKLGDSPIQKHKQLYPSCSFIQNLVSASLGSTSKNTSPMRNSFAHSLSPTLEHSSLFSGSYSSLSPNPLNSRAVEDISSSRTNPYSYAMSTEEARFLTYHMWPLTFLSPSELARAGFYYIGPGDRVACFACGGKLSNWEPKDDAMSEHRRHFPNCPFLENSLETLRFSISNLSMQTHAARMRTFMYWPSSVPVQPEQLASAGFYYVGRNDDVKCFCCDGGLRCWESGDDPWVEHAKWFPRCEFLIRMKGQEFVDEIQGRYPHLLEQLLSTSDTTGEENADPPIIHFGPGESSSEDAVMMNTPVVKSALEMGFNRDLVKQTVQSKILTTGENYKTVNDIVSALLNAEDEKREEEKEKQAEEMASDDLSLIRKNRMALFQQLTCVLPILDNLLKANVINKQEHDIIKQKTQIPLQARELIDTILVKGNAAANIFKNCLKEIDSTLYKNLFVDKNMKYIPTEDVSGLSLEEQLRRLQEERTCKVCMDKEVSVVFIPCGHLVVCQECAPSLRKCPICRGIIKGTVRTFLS

c-IAP1 levels (c-IAP1) | Structure (SMILES) | EC50 (SKOV-3 cells) | EC50 (MDA-MB-231 cells) | further results
 | CN[C@@H](C)C(=O)N[C@H](C(=O)N1CCC[C@H]1CN(CCc1ccccc1)C(=O)c1ccc(C(=O)N(CCc2ccccc2)C[C@@H]2CCCN2C(=O)[C@@H](NC(=O)[C@H](C)NC)C(C)(C)C)s1)C(C)(C)C [Compound 26] | 10 to 25 nM | < 10 nM | 
 | CN[C@@H](C)C(=O)N[C@H](C(=O)N1CCC[C@H]1CN(C[C@H](C)c1ccccc1)C(=O)CCCCCCCCC(=O)N(C[C@@H]1CCCN1C(=O)[C@@H](NC(=O)[C@H](C)NC)C(C)(C)C)C[C@H](C)c1ccccc1)C(C)(C)C [Compound 21] | < 10 nM | < 10 nM | 
 | CN[C@@H](C)C(=O)N[C@H](C(=O)N1CCC[C@H]1CN(CCc1ccccc1)C(=O)c1ccc2cc(C(=O)N(CCc3ccccc3)C[C@@H]3CCCN3C(=O)[C@@H](NC(=O)[C@H](C)NC)C(C)(C)C)ccc2c1)C(C)(C)C [Compound 56] | < 10 nM |  | decrease in MTT signal in fibers from treated mice (selected cell lines): 70%
reduced | CN[C@@H](C)C(=O)N[C@H](C(=O)N1CCC[C@H]1CN(CCCCc1ccccc1)C(=O)CCCCCCCCC(=O)N(CCCCc1ccccc1)C[C@@H]1CCCN1C(=O)[C@@H](NC(=O)[C@H](C)NC)C(C)(C)C)C(C)(C)C [Compound 40] |  |  | 
reduced | CN[C@@H](C)C(=O)N[C@H](C(=O)N1CCC[C@H]1CN(CCc1ccccc1)C(=O)CNC(=O)c1ccc(-c2ccc(C(=O)NCC(=O)N(CCc3ccccc3)C[C@@H]3CCCN3C(=O)[C@@H](NC(=O)[C@H](C)NC)C(C)(C)C)cc2)cc1)C(C)(C)C [Compound 45] | < 10 nM |  | 
 | CN[C@@H](C)C(=O)N[C@H](C(=O)N1CCC[C@H]1CN(CCc1ccccc1)C(=O)CNC(=O)c1ccc(C(=O)NCC(=O)N(CCc2ccccc2)C[C@@H]2CCCN2C(=O)[C@@H](NC(=O)[C@H](C)NC)C(C)(C)C)cc1)C(C)(C)C [Compound 35] | < 10 nM | < 10 nM | potentiated TRAIL efficacy (A2780S ovarian cells): approximately 2 logs
reduced | CN[C@@H](C)C(=O)N[C@H](C(=O)N1CCC[C@H]1CN(CCc1ccc(C(F)(F)F)cc1)C(=O)CCCCCCCCC(=O)N(CCc1ccc(C(F)(F)F)cc1)C[C@@H]1CCCN1C(=O)[C@@H](NC(=O)[C@H](C)NC)C(C)(C)C)C(C)(C)C [Compound 67] |  |  | 
reduced | CN[C@@H](C)C(=O)N[C@H](C(=O)N1CCC[C@H]1CN(CCc1ccccc1)C(=O)CNC(=O)c1cccc(C(=O)NCC(=O)N(CCc2ccccc2)C[C@@H]2CCCN2C(=O)[C@@H](NC(=O)[C@H](C)NC)C(C)(C)C)c1)C(C)(C)C [Compound 44] | < 10 nM |  | 
 | CN[C@@H](C)C(=O)N[C@H](C(=O)N1CCC[C@H]1CN(CCc1ccccc1)C(=O)Nc1ccc(NC(=O)N(CCc2ccccc2)C[C@@H]2CCCN2C(=O)[C@@H](NC(=O)[C@H](C)NC)C(C)(C)C)cc1)C(C)(C)C [Compound 20] | 10 to 25 nM | < 10 nM | 
 | CN[C@@H](C)C(=O)N[C@H](C(=O)N1CCC[C@H]1CN(CCc1ccc(F)cc1)C(=O)CCCCCCCCC(=O)N(CCc1ccc(F)cc1)C[C@@H]1CCCN1C(=O)[C@@H](NC(=O)[C@H](C)NC)C(C)(C)C)C(C)(C)C [Compound 29] | 10 to 25 nM | < 10 nM | 
reduced | CN[C@@H](C)C(=O)N[C@H](C(=O)N1CCC[C@H]1CN(CCc1ccccc1)C(=O)CCNC(=O)c1ccc(C(=O)NCCC(=O)N(CCc2ccccc2)C[C@@H]2CCCN2C(=O)[C@@H](NC(=O)[C@H](C)NC)C(C)(C)C)cc1)C(C)(C)C [Compound 91] | 10 to 25 nM |  | 
reduced | CN[C@@H](C)C(=O)N[C@H](C(=O)N1CCC[C@H]1CN(Cc1cccc(C(F)(F)F)c1)C(=O)CCCCCCCCC(=O)N(Cc1cccc(C(F)(F)F)c1)C[C@@H]1CCCN1C(=O)[C@@H](NC(=O)[C@H](C)NC)C(C)(C)C)C(C)(C)C [Compound 100] |  |  | 

Structure (SMILES) | c-IAP1 levels (c-IAP1) | EC50 (SKOV-3 cells) | EC50 (MDA-MB-231 cells) | further results
CN[C@@H](C)C(=O)N[C@H](C(=O)N1CCC[C@H]1CN(CCc1ccccc1)C(=O)CNC(=O)C(=O)NCC(=O)N(CCc1ccccc1)C[C@@H]1CCCN1C(=O)[C@@H](NC(=O)[C@H](C)NC)C(C)(C)C)C(C)(C)C [Compound 31] | reduced | < 10 nM | < 10 nM | potentiated TRAIL efficacy (HCT116 colorectal cells): approximately 2 logs; decrease in MTT signal in fibers from treated mice (selected cell lines): 70%
